Measurements as given in ChEMBL document CHEMBL4020788, “Synthesis, SAR and molecular docking studies of benzo[d]thiazole-hydrazones as potential antibacterial and antifungal agents” (2017).
In brackets after ≈: the same amount, converted by molar mass.

Experiments:
Type in all cases: functional
Fusarium verticillioides [1] = experiment: Antifungal activity against Fusarium moniliforme after 48 to 72 hrs by microdilution method
Fusarium verticillioides [2] = experiment: Antifungal activity against Fusarium moniliforme at 75 ug/ml after 48 hrs by agar well diffusion method; conditions: read-out: DIZ
Aspergillus niger [3] = experiment: Antifungal activity against Aspergillus niger at 50 ug/ml after 48 hrs by agar well diffusion method; conditions: read-out: DIZ
Aspergillus niger [4] = experiment: Antifungal activity against Aspergillus niger at 25 ug/ml after 48 hrs by agar well diffusion method; conditions: read-out: DIZ
Fusarium oxysporum [5] = experiment: Antifungal activity against Fusarium oxysporum at 100 ug/ml after 48 hrs by agar well diffusion method; conditions: read-out: DIZ
Aspergillus niger [6] = experiment: Antifungal activity against Aspergillus niger at 100 ug/ml after 48 hrs by agar well diffusion method; conditions: read-out: DIZ
Fusarium verticillioides [7] = experiment: Antifungal activity against Fusarium moniliforme at 25 ug/ml after 48 hrs by agar well diffusion method; conditions: read-out: DIZ
Fusarium oxysporum [8] = experiment: Antifungal activity against Fusarium oxysporum after 48 to 72 hrs by microdilution method
Fusarium oxysporum [9] = experiment: Antifungal activity against Fusarium oxysporum at 25 ug/ml after 48 hrs by agar well diffusion method; conditions: read-out: DIZ
Aspergillus niger [10] = experiment: Antifungal activity against Aspergillus niger after 48 to 72 hrs by microdilution method
Fusarium oxysporum [11] = experiment: Antifungal activity against Fusarium oxysporum at 50 ug/ml after 48 hrs by agar well diffusion method; conditions: read-out: DIZ
Fusarium oxysporum [12] = experiment: Antifungal activity against Fusarium oxysporum at 75 ug/ml after 48 hrs by agar well diffusion method; conditions: read-out: DIZ
Fusarium verticillioides [13] = experiment: Antifungal activity against Fusarium moniliforme at 50 ug/ml after 48 hrs by agar well diffusion method; conditions: read-out: DIZ
Aspergillus niger [14] = experiment: Antifungal activity against Aspergillus niger at 75 ug/ml after 48 hrs by agar well diffusion method; conditions: read-out: DIZ
Fusarium verticillioides [15] = experiment: Antifungal activity against Fusarium moniliforme at 100 ug/ml after 48 hrs by agar well diffusion method; conditions: read-out: DIZ
Bacillus subtilis [16] = experiment: Antibacterial activity against Bacillus subtilis at 50 ug/ml after 24 hrs by agar well diffusion method; conditions: read-out: DIZ
Staphylococcus aureus [17] = experiment: Antibacterial activity against Staphylococcus aureus at 75 ug/ml after 24 hrs by agar well diffusion method; conditions: read-out: DIZ
Bacillus subtilis [18] = experiment: Antibacterial activity against Bacillus subtilis at 25 ug/ml after 24 hrs by agar well diffusion method; conditions: read-out: DIZ
Staphylococcus aureus [19] = experiment: Antibacterial activity against methicillin resistant Staphylococcus aureus MRSA090 at 75 ug/ml after 24 hrs by agar well diffusion method; conditions: MRSA090, 24 h, read-out: DIZ
Klebsiella pneumoniae [20] = experiment: Antibacterial activity against Klebsiella pneumoniae at 100 ug/ml after 24 hrs by agar well diffusion method; conditions: read-out: DIZ
Staphylococcus aureus [21] = experiment: Antibacterial activity against Staphylococcus aureus at 25 ug/ml after 24 hrs by agar well diffusion method; conditions: read-out: DIZ
Escherichia coli [22] = experiment: Antibacterial activity against Escherichia coli at 100 ug/ml after 24 hrs by agar well diffusion method; conditions: read-out: DIZ
Escherichia coli [23] = experiment: Antibacterial activity against Escherichia coli at 75 ug/ml after 24 hrs by agar well diffusion method; conditions: read-out: DIZ
Escherichia coli [24] = experiment: Antibacterial activity against Escherichia coli at 50 ug/ml after 24 hrs by agar well diffusion method; conditions: read-out: DIZ
Bacillus subtilis [25] = experiment: Antibacterial activity against Bacillus subtilis at 100 ug/ml after 24 hrs by agar well diffusion method; conditions: read-out: DIZ
Klebsiella pneumoniae [26] = experiment: Antibacterial activity against Klebsiella pneumoniae at 50 ug/ml after 24 hrs by agar well diffusion method; conditions: read-out: DIZ
Staphylococcus aureus [27] = experiment: Antibacterial activity against methicillin resistant Staphylococcus aureus MRSA090 at 50 ug/ml after 24 hrs by agar well diffusion method; conditions: MRSA090, 24 h, read-out: DIZ
Staphylococcus aureus [28] = experiment: Antibacterial activity against Staphylococcus aureus at 100 ug/ml after 24 hrs by agar well diffusion method; conditions: read-out: DIZ
Staphylococcus aureus [29] = experiment: Antibacterial activity against methicillin resistant Staphylococcus aureus MRSA090 at 25 ug/ml after 24 hrs by agar well diffusion method; conditions: MRSA090, 24 h, read-out: DIZ
Escherichia coli [30] = experiment: Antibacterial activity against Escherichia coli at 25 ug/ml after 24 hrs by agar well diffusion method; conditions: read-out: DIZ
Klebsiella pneumoniae [31] = experiment: Antibacterial activity against Klebsiella pneumoniae at 25 ug/ml after 24 hrs by agar well diffusion method; conditions: read-out: DIZ
Bacillus subtilis [32] = experiment: Antibacterial activity against Bacillus subtilis at 75 ug/ml after 24 hrs by agar well diffusion method; conditions: read-out: DIZ
Klebsiella pneumoniae [33] = experiment: Antibacterial activity against Klebsiella pneumoniae at 75 ug/ml after 24 hrs by agar well diffusion method; conditions: read-out: DIZ
Staphylococcus aureus [34] = experiment: Antibacterial activity against methicillin resistant Staphylococcus aureus MRSA090 at 100 ug/ml after 24 hrs by agar well diffusion method; conditions: MRSA090, 24 h, read-out: DIZ
Staphylococcus aureus [35] = experiment: Antibacterial activity against Staphylococcus aureus at 50 ug/ml after 24 hrs by agar well diffusion method; conditions: read-out: DIZ
Bacillus subtilis [36] = experiment: Antibacterial activity against Bacillus subtilis incubated for overnight by microdilution method
Klebsiella pneumoniae [37] = experiment: Antibacterial activity against Klebsiella pneumoniae incubated for overnight by microdilution method
Escherichia coli [38] = experiment: Antibacterial activity against Escherichia coli incubated for overnight by microdilution method
Staphylococcus aureus [39] = experiment: Antibacterial activity against Staphylococcus aureus incubated for overnight by microdilution method

In the case of CC(=O)N1CCN(c2ccc(OCC3COC(Cn4ccnc4)(c4ccc(Cl)cc4Cl)O3)cc2)CC1 (centres undefined) [KETOCONAZOLE], the MIC (Fusarium verticillioides [1]) is reported as 27 µg/mL (≈ 50.8 µM), the zone of inhibition at 75 µg/mL (Fusarium verticillioides [2]) is reported as 31 mm and the zone of inhibition at 50 µg/mL (Aspergillus niger [3]) is reported as 28 mm. The zone of inhibition at 25 µg/mL (Aspergillus niger [4]) was 24 mm, the zone of inhibition at 100 µg/mL (Fusarium oxysporum [5]) was 38 mm and the zone of inhibition at 100 µg/mL (Aspergillus niger [6]) was 37 mm. It also gave a zone of inhibition at 25 µg/mL (Fusarium verticillioides [7]) of 21 mm, an MIC (Fusarium oxysporum [8]) of 24 µg/mL (≈ 45.2 µM) and a zone of inhibition at 25 µg/mL (Fusarium oxysporum [9]) of 23 mm. It also gave an MIC (Aspergillus niger [10]) of 28 µg/mL (≈ 52.7 µM), a zone of inhibition at 50 µg/mL (Fusarium oxysporum [11]) of 22 mm and a zone of inhibition at 75 µg/mL (Fusarium oxysporum [12]) of 32 mm. For the same compound, the zone of inhibition at 50 µg/mL (Fusarium verticillioides [13]) was 25 mm, the zone of inhibition at 75 µg/mL (Aspergillus niger [14]) was 34 mm and the zone of inhibition at 100 µg/mL (Fusarium verticillioides [15]) was 34 mm.
In the case of Cc1cccc2nc(N/N=C/c3ccc([N+](=O)[O-])cc3[N+](=O)[O-])sc12, the zone of inhibition at 50 µg/mL (Bacillus subtilis [16]) is reported as 7 mm, the zone of inhibition at 75 µg/mL (Staphylococcus aureus [17]) is reported as 13 mm and the zone of inhibition at 25 µg/mL (Bacillus subtilis [18]) is reported as 3 mm. It also gave an MIC (Fusarium verticillioides [1]) of 25 µg/mL (≈ 70 µM), a zone of inhibition at 75 µg/mL (Staphylococcus aureus [19]) of 16 mm and a zone of inhibition at 100 µg/mL (Klebsiella pneumoniae [20]) of 19 mm. It also gave a zone of inhibition at 75 µg/mL (Fusarium verticillioides [2]) of 30 mm, a zone of inhibition at 50 µg/mL (Aspergillus niger [3]) of 24 mm and a zone of inhibition at 25 µg/mL (Staphylococcus aureus [21]) of 6 mm. The zone of inhibition at 100 µg/mL (Escherichia coli [22]) was 18 mm, the zone of inhibition at 25 µg/mL (Aspergillus niger [4]) was 21 mm and the zone of inhibition at 75 µg/mL (Escherichia coli [23]) was 15 mm. The zone of inhibition at 100 µg/mL (Fusarium oxysporum [5]) was 28 mm, the zone of inhibition at 100 µg/mL (Aspergillus niger [6]) was 32 mm and the zone of inhibition at 50 µg/mL (Escherichia coli [24]) was 13 mm. For the same compound, the zone of inhibition at 25 µg/mL (Fusarium verticillioides [7]) was 20 mm, the zone of inhibition at 100 µg/mL (Bacillus subtilis [25]) was 16 mm and the MIC (Fusarium oxysporum [8]) was 22 µg/mL (≈ 61.6 µM). It also gave a zone of inhibition at 50 µg/mL (Klebsiella pneumoniae [26]) of 19 mm, a zone of inhibition at 25 µg/mL (Fusarium oxysporum [9]) of 13 mm and an MIC (Aspergillus niger [10]) of 25 µg/mL (≈ 70 µM). The zone of inhibition at 50 µg/mL (Staphylococcus aureus [27]) was 13 mm, the zone of inhibition at 100 µg/mL (Staphylococcus aureus [28]) was 19 mm and the zone of inhibition at 25 µg/mL (Staphylococcus aureus [29]) was 8 mm. The zone of inhibition at 25 µg/mL (Escherichia coli [30]) was 8 mm, the zone of inhibition at 50 µg/mL (Fusarium oxysporum [11]) was 19 mm and the zone of inhibition at 25 µg/mL (Klebsiella pneumoniae [31]) was 5 mm. For the same compound, the zone of inhibition at 75 µg/mL (Fusarium oxysporum [12]) was 25 mm, the zone of inhibition at 75 µg/mL (Bacillus subtilis [32]) was 12 mm and the zone of inhibition at 50 µg/mL (Fusarium verticillioides [13]) was 24 mm. For the same compound, the zone of inhibition at 75 µg/mL (Aspergillus niger [14]) was 29 mm, the zone of inhibition at 75 µg/mL (Klebsiella pneumoniae [33]) was 14 mm and the zone of inhibition at 100 µg/mL (Staphylococcus aureus [34]) was 18 mm. It also gave a zone of inhibition at 100 µg/mL (Fusarium verticillioides [15]) of 36 mm and a zone of inhibition at 50 µg/mL (Staphylococcus aureus [35]) of 9 mm.
Cc1cccc2nc(N/N=C/c3ccc(Br)cc3Br)sc12 gave a zone of inhibition at 50 µg/mL (Bacillus subtilis [16]) of 17 mm, a zone of inhibition at 75 µg/mL (Staphylococcus aureus [17]) of 18 mm and a zone of inhibition at 25 µg/mL (Bacillus subtilis [18]) of 13 mm. For the same compound, the MIC (Fusarium verticillioides [1]) was 18 µg/mL (≈ 42.3 µM), the zone of inhibition at 75 µg/mL (Staphylococcus aureus [19]) was 15 mm and the zone of inhibition at 100 µg/mL (Klebsiella pneumoniae [20]) was 20 mm. For the same compound, the zone of inhibition at 75 µg/mL (Fusarium verticillioides [2]) was 32 mm, the zone of inhibition at 50 µg/mL (Aspergillus niger [3]) was 29 mm and the zone of inhibition at 25 µg/mL (Staphylococcus aureus [21]) was 11 mm. For the same compound, the zone of inhibition at 100 µg/mL (Escherichia coli [22]) was 16 mm, the MIC (Bacillus subtilis [36]) was 28 µg/mL (≈ 65.9 µM) and the zone of inhibition at 25 µg/mL (Aspergillus niger [4]) was 24 mm. For the same compound, the zone of inhibition at 75 µg/mL (Escherichia coli [23]) was 12 mm, the zone of inhibition at 100 µg/mL (Fusarium oxysporum [5]) was 38 mm and the zone of inhibition at 100 µg/mL (Aspergillus niger [6]) was 40 mm. The MIC (Klebsiella pneumoniae [37]) was 20 µg/mL (≈ 47 µM), the zone of inhibition at 50 µg/mL (Escherichia coli [24]) was 8 mm and the zone of inhibition at 25 µg/mL (Fusarium verticillioides [7]) was 21 mm. For the same compound, the zone of inhibition at 100 µg/mL (Bacillus subtilis [25]) was 27 mm, the MIC (Fusarium oxysporum [8]) was 16 µg/mL (≈ 37.6 µM) and the zone of inhibition at 50 µg/mL (Klebsiella pneumoniae [26]) was 11 mm. For the same compound, the zone of inhibition at 25 µg/mL (Fusarium oxysporum [9]) was 16 mm, the MIC (Aspergillus niger [10]) was 20 µg/mL (≈ 47 µM) and the zone of inhibition at 50 µg/mL (Staphylococcus aureus [27]) was 12 mm. It also gave a zone of inhibition at 100 µg/mL (Staphylococcus aureus [28]) of 21 mm, an MIC (Escherichia coli [38]) of 24 µg/mL (≈ 56.5 µM) and a zone of inhibition at 25 µg/mL (Staphylococcus aureus [29]) of 8 mm. For the same compound, the zone of inhibition at 25 µg/mL (Escherichia coli [30]) was 5 mm, the zone of inhibition at 50 µg/mL (Fusarium oxysporum [11]) was 24 mm and the zone of inhibition at 25 µg/mL (Klebsiella pneumoniae [31]) was 8 mm. For the same compound, the MIC (Staphylococcus aureus [39]) was 28 µg/mL (≈ 65.9 µM), the zone of inhibition at 75 µg/mL (Fusarium oxysporum [12]) was 30 mm and the zone of inhibition at 75 µg/mL (Bacillus subtilis [32]) was 24 mm. For the same compound, the zone of inhibition at 50 µg/mL (Fusarium verticillioides [13]) was 27 mm, the zone of inhibition at 75 µg/mL (Aspergillus niger [14]) was 36 mm and the zone of inhibition at 75 µg/mL (Klebsiella pneumoniae [33]) was 15 mm. For the same compound, the zone of inhibition at 100 µg/mL (Staphylococcus aureus [34]) was 17 mm, the zone of inhibition at 100 µg/mL (Fusarium verticillioides [15]) was 41 mm and the zone of inhibition at 50 µg/mL (Staphylococcus aureus [35]) was 15 mm.
